Reference: US7098228B2, “Indolyl derivatives” (Hoffmann-La Roche Inc., priority 2002, dated 2006)

Legend:
[1] = biological target: T1, PPARγ (Mus musculus, UniProt P37238); test: PPARγ radioligand binding assay (scintillation proximity, GST-PPARγ-LBD); set-up: made in house; host or cells: E. coli BL21 (pLysS)
T1 sequence (P37238 204-505): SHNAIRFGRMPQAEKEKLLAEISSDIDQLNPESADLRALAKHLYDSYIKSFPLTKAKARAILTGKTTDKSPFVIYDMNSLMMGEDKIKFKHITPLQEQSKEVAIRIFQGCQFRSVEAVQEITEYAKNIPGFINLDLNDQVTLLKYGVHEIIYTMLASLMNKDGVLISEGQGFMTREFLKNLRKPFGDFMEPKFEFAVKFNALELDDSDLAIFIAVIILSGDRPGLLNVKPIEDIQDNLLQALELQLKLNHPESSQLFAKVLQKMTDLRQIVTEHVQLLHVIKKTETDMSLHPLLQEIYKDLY
Excerpt: (§1) Full-length cDNA clones for human PPARα and mouse PPARγ were obtained by RT-PCR from human adipose and mouse liver cRNA, respectively, cloned into plasmid vectors and verified by DNA sequencing. […] To accomplish this, the portions of the cloned sequences encoding the LBDs were amplified from the full-length clones by PCR and then subcloned into the plasmid vectors. Final clones were verified by DNA sequence analysis.
Induction, expression, and purification of GST-LBD fusion proteins were performed in E. coli strain BL21 (pLysS) cells by standard methods (Ref: Current Protocols in Molecular Biology, Wiley Press, edited by Ausubel et al.).
Radioligand Binding Assay
PPARγ receptor binding was assayed in TKE50 (50 mM Tris-HCl, pH 8, 50 mM KCl, 2 mM EDTA, 0.1 mg/ml fatty acid-free BSA and 10 mM DTT). For each 96 well reaction an 140 ng equivalent of GST-PPARγ-LBD fusion protein was bound to 10 ug SPA beads (PharmaciaAmersham) in a final volume of 50 ul by shaking. The resulting slurry was incubated for 1 h at RT and centrifuged for 2 min at 1300 g. The supernatant containing unbound protein was removed and the semidry pellet containig the recptor-coated beads was resolved in 50 ul of TKE. For radioligand binding e.g. 10000 dpm 2(S)-(2-benzoyl-phenylamino)-3-{4-[1,1-ditritio-2-(5-methyl-2-phenyl-oxazol-4-yl) -ethoxy]-phenyl}-propionic acid in 50 ul were added, the reaction incubated at RT for 1 h and scintillation proximity counting performed. All binding assays were performed in 96 well plates and the amount of bound ligand measured on a Packard TopCount using OptiPlates (Packard). Nonspecific binding was determined in the presence of 10^−4 M unlabelled compound. Dose response curves were done in triplicates within a range of concentration from 10^−10 M to 10^−4 M.

[2] = biological target: T1, PPARγ; test: Luciferase transcriptional reporter gene assay, pFA-PPARγ-LBD in BHK21 cells; assay type: cell-based
Excerpt: as §1
(§2) Luciferase Transcriptional Reporter Gene Assays
(§3) Baby hamster kidney cells (BHK21 ATCC CCL10) were grown in DMEM medium containing 10% FBS at 37° C. in a 95% O2:5% CO2 atmosphere. Cells were seeded in 6 well plates at a density of 10^5 Cells/well and then batch-transfected with either the pFA-PPARγ-LBD or pFA-PPARα-LBD expression plasmids plus the pFR-luc reporter plasmid and an expression plasmid encoding the secretable form of alkaline phosphatase (SEAP) as a normalization control. […] Six hours following transfection, the cells were harvested by trypsinization and seeded in 96 well plates at a density of 10^4 cells/well. After 24 hours to allow attachment of cells, the medium was removed and replaced with 100 ul of phenol red-free medium containing the test substances or control ligands (final. 0.1% DMSO). Following incubation of the cells for 24 hours with substances, 50 ul of the supernatant was recovered and analyzed for SEAP activity (Roche Molecular Biochemicals). The remainder of the supernatant was discarded, 50 ul PBS was added per well followed by one volume of Luciferase Constant-Light Reagent (Roche Molecular Biochemicals) to lyse the cells and initiate the luciferase reaction. Luminescence for both SEAP and luciferase was measured in a Packard TopCount. Luciferase activity was normalized to the SEAP control and transcriptional activation in the presence of a test substance was expressed as fold-activation over cells incubated in the absence of the substance. EC50 values were calculated using the XLfit program (ID Business Solutions Ltd. UK).

[3] = biological target: T2, PPARα (Homo sapiens, UniProt Q07869); test: Luciferase transcriptional reporter gene assay, pFA-PPARα-LBD in BHK21 cells; assay type: cell-based
T2 construct: PPARα (aa 167 to 469); expressed in transfected cells; host or cells: BHK21 (ATCC CCL10)
T2 sequence (Q07869 167-468 limits assumed): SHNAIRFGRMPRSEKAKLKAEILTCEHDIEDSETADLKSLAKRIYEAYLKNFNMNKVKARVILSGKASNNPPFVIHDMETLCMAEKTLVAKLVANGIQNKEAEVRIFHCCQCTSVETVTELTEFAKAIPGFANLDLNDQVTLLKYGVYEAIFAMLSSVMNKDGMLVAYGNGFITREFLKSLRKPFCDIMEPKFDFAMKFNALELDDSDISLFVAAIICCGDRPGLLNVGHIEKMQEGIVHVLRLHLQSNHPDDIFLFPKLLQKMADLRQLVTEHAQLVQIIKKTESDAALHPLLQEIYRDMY
Excerpt: as §1, §2, §3

| IC50 [1] | EC50 [2] | EC50 [3] | Structure (SMILES) |
| --- | --- | --- | --- |
| 68 nM | 7 nM | 8 nM | CCOC(Cc1cccc2c1ccn2Cc1nc(-c2cc(OC)cc(OC)c2)oc1C)C(=O)O (racemic) [Example 1, rac-3-{1-[2-(3,5-Dimethoxy-phenyl)-5-methyl-oxazol-4-ylmethyl]-1H-indol-4-yl}-2-ethoxy-propionic acid] |
| 53 nM | 93 nM | 200 nM | CCOC(Cc1cccc2c1ccn2Cc1nc(-c2ccc(C(C)C)cc2)oc1C)C(=O)O (racemic) [Example 2, rac-2-Ethoxy-3-{1-[2-(4-isopropyl-phenyl)-5-methyl-oxazol-4-ylmethyl]-1H-indol-4-yl}-propionic acid] |
| – | – | 190 nM | CCOC(Cc1cccc2c1ccn2CCCc1nc(-c2ccccc2)oc1C)C(=O)O (racemic) [Example 3, rac-2-Ethoxy-3-{1-[3-(5-methyl-2-phenyl-oxazol-4-yl)-propyl]-1H-indol-4-yl}-propionic acid] |
| 1400 nM | 140 nM | 44 nM | CCOC(Cc1cccc2c1ccn2Cc1nc(-c2ccc(C(F)(F)F)cc2)oc1C)C(=O)O (racemic) [Example 10, rac-2-Ethoxy-3-{1-[5-methyl-2-(4-trifluoromethyl-phenyl)-oxazol-4-ylmethyl]-1H-indol-4-yl}-propionic acid] |
